Legend:
[1] = xn = mol fraction of the nth substance listed; conditions: 101 kPa, Liquid, Vibrating tube method
[2] = Liquid; for speed of sound: Sing-around technique in a fixed-path interferometer; for mass density: Vibrating tube method
[3] = refractive index (Na D-line) (dimensionless); conditions: 298.15 K; 101.33 kPa; Liquid; Standard Abbe refractometry

CN(C)C=O [dimethylformamide] + CCCCCCCCO
[1], x1 = 1
Conditions | mass density [kg/m3]
298.15 K | 944.29
303.15 K | 939.047
308.15 K | 934.721
313.15 K | 929.478

CN(C)C=O [dimethylformamide]
[2]
Conditions | mass density, 298.15 K [kg/m3] | mass density, 303.15 K [kg/m3] | mass density, 308.15 K [kg/m3] | mass density, 313.15 K [kg/m3] | speed of sound, 298.15 K [m/s]
101 kPa | – | 939.047 | 934.721 | 929.478 | –
101.33 kPa | 944.29 | – | – | – | 1457.7

Conditions | refractive index
[3] | 1.428

CCCCCCCCCCO [decan-1-ol] + CN(C)C=O
mass density [kg/m3], [1]
Conditions | x2 = 0 | x2 = 0.2361 | x2 = 0.4193 | x2 = 0.5688 | x2 = 0.6724 | x2 = 0.7496 | x2 = 0.8185 | x2 = 0.8748 | x2 = 0.923 | x2 = 0.9632
298.15 K | 826.562 | 838.6 | 851.13 | 864.685 | 876.794 | 887.827 | 899.61 | 910.986 | 922.298 | 933.094
303.15 K | 822.853 | 834.589 | 846.845 | 860.269 | 872.216 | 883.031 | 894.603 | 905.795 | 916.997 | 927.772
308.15 K | 819.427 | 830.903 | 843.033 | 856.394 | 868.282 | 879.008 | 890.399 | 901.448 | 912.559 | 923.333
313.15 K | 816.383 | 827.267 | 839.221 | 852.343 | 863.94 | 874.443 | 885.574 | 896.397 | 907.34 | 918.051

CCCCCCCCO [octan-1-ol] + CN(C)C=O
mass density [kg/m3], [1]
Conditions | x2 = 0 | x2 = 0.2198 | x2 = 0.3728 | x2 = 0.5208 | x2 = 0.6277 | x2 = 0.7118 | x2 = 0.7877 | x2 = 0.8519 | x2 = 0.9085 | x2 = 0.9556
298.15 K | 821.222 | 835.186 | 847.253 | 861.646 | 874.238 | 885.914 | 898.138 | 909.952 | 921.843 | 932.914
303.15 K | 818.209 | 831.811 | 843.584 | 857.568 | 869.964 | 881.458 | 893.435 | 905.109 | 916.796 | 927.592
308.15 K | 814.742 | 828.086 | 839.752 | 853.623 | 865.852 | 877.239 | 889.113 | 900.709 | 912.287 | 923.224
313.15 K | 810.629 | 823.708 | 835.263 | 849.056 | 861.125 | 872.405 | 884.137 | 895.506 | 907.01 | 917.847

CCCCCCCCCCO [decan-1-ol]
[2]
Conditions | mass density, 298.15 K [kg/m3] | mass density, 303.15 K [kg/m3] | mass density, 308.15 K [kg/m3] | mass density, 313.15 K [kg/m3] | speed of sound, 298.15 K [m/s]
101 kPa | – | 822.853 | 819.427 | 816.383 | –
101.33 kPa | 826.562 | – | – | – | 1380

Conditions | refractive index
[3] | 1.4348

CCCCCCCCCO [nonan-1-ol]
[2]
Conditions | mass density, 298.15 K [kg/m3] | mass density, 303.15 K [kg/m3] | mass density, 308.15 K [kg/m3] | mass density, 313.15 K [kg/m3] | speed of sound, 298.15 K [m/s]
101 kPa | – | 821.044 | 817.582 | 814.098 | –
101.33 kPa | 824.478 | – | – | – | 1365.5

Conditions | refractive index
[3] | 1.4319

CN(C)C=O [dimethylformamide] + CCCCCCCCCCO
[1], x1 = 1
Conditions | mass density [kg/m3]
298.15 K | 944.29
303.15 K | 939.047
308.15 K | 934.721
313.15 K | 929.478

CCCCCCCCCO [nonan-1-ol] + CN(C)C=O
mass density [kg/m3], [1]
Conditions | x2 = 0 | x2 = 0.2201 | x2 = 0.3969 | x2 = 0.5458 | x2 = 0.6515 | x2 = 0.7321 | x2 = 0.8042 | x2 = 0.8644 | x2 = 0.9168 | x2 = 0.9596
298.15 K | 824.478 | 836.826 | 849.646 | 863.512 | 875.893 | 887.234 | 899.18 | 910.842 | 922.441 | 933.098
303.15 K | 821.044 | 833.085 | 845.647 | 859.175 | 871.335 | 882.498 | 894.281 | 905.742 | 917.225 | 927.834
308.15 K | 817.582 | 829.399 | 841.793 | 855.283 | 867.284 | 878.301 | 889.932 | 901.314 | 912.742 | 923.379
313.15 K | 814.098 | 825.49 | 837.685 | 851.074 | 862.916 | 873.711 | 885.08 | 896.217 | 907.487 | 918.072

CCCCCCCCO [octan-1-ol]
[2]
Conditions | mass density, 298.15 K [kg/m3] | mass density, 303.15 K [kg/m3] | mass density, 308.15 K [kg/m3] | mass density, 313.15 K [kg/m3] | speed of sound, 298.15 K [m/s]
101 kPa | – | 818.209 | 814.742 | 810.629 | –
101.33 kPa | 821.222 | – | – | – | 1347.8

Conditions | refractive index
[3] | 1.4273

CN(C)C=O [dimethylformamide] + CCCCCCCCCO
[1], x1 = 1
Conditions | mass density [kg/m3]
298.15 K | 944.29
303.15 K | 939.047
308.15 K | 934.721
313.15 K | 929.478
